{
  "source": "patent US12364661B2",
  "about": "“Deformable nano-scale vehicles (DNVS) for trans-blood brain barrier, trans-mucosal, and transdermal drug delivery” (The Regents of the University of California, priority 2015, dated 2025)",
  "origin": "cited, not measured here",
  "conditions": "measured experimentally",
  "data": [
    {"smiles": "CCCN[C@H]1CCc2nc(N)sc2C1", "note": "[Pramipexole, pramipexole]", "values": [
      {"measurement": "log P", "value": 0.4}
    ]}
  ]
}
